In ChEMBL document CHEMBL1201862, “PubChem BioAssay data set” (2004):
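Protocol summary: plate cells (96-well), add compound at 5 concentrations, incubate 48 h, interpolate endpoints linearly. Abbreviation: GI50, concentration required for 50% inhibition of growth.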 Activity calls are given as the source filed them. No stated cut-off is given here; in the data, active = GI50 up to about 1.1 µM and inactive = higher.

How the values were obtained:
Assay in all cases: NCI anticancer screen, dose series, 48 h
SF-268 = test system: SF-268
LOX IMVI = test system: LOX IMVI
IGROV-1 = test system: IGROV-1
SF-539 = test system: SF-539
786-0 = test system: 786-0
Hs-578T = test system: Hs-578T
HOP-92 = test system: HOP-92
UACC-62 = test system: UACC-62
TK-10 = test system: TK-10
SN12C = test system: SN12C
M19-MEL = test system: M19-MEL
M14 = test system: M14
EKVX = test system: EKVX
Malme-3M = test system: Malme-3M
A498 = test system: A498
DU-145 = test system: DU-145
HOP-62 = test system: HOP-62
DMS-114 = test system: DMS-114
SK-OV-3 = test system: SK-OV-3
U-251 = test system: U-251

SMILES	GI50 (SF-268)	GI50 (LOX IMVI)	GI50 (IGROV-1)	GI50 (SF-539)	GI50 (786-0)	GI50 (Hs-578T)	GI50 (HOP-92)	GI50 (UACC-62)	GI50 (TK-10)	GI50 (SN12C)	GI50 (M19-MEL)	GI50 (M14)	GI50 (EKVX)	GI50 (Malme-3M)	GI50 (A498)	GI50 (DU-145)	GI50 (HOP-62)	GI50 (DMS-114)	GI50 (SK-OV-3)	GI50 (U-251)
O=c1c(Cl)c(Cl)cnn1CCCl	3830 nM (inactive)	2860 nM (inactive)	1950 nM (inactive)	14100 nM (inactive)	12200 nM (inactive)	3250 nM (inactive)	1930 nM (inactive)	3400 nM (inactive)	15900 nM (inactive)	12900 nM (inactive)	2670 nM (inactive)	2670 nM (inactive)	6730 nM (inactive)	2560 nM (inactive)	13100 nM (inactive)	18700 nM (inactive)	17300 nM (inactive)	4300 nM (inactive)	3560 nM (inactive)	5900 nM (inactive)
C[N+](C)(Cc1ccc(NC(=O)CCCC(=O)ON2C(=O)CCC2=O)cc1)c1ccccc1	< 10 nM (active)	< 10 nM (active)	< 10 nM (active)	< 10 nM (active)	< 10 nM (active)	–	< 10 nM (active)	< 10 nM (active)	< 10 nM (active)	< 10 nM (active)	< 10 nM (active)	< 10 nM (active)	< 10 nM (active)	< 10 nM (active)	< 10 nM (active)	–	< 10 nM (active)	> 1000 nM (active)	< 10 nM (active)	< 10 nM (active)
Cc1cc(NC(=O)NC(=O)c2ccccc2NC(=O)CN(C)C)ccc1Oc1ncc(Br)cn1	10000 nM (inactive)	9980 nM (inactive)	6270 nM (inactive)	1560 nM (inactive)	3520 nM (inactive)	1600 nM (inactive)	20300 nM (inactive)	2210 nM (inactive)	21600 nM (inactive)	17300 nM (inactive)	36800 nM (inactive)	1580 nM (inactive)	12900 nM (inactive)	6840 nM (inactive)	929 nM (active)	2410 nM (inactive)	2760 nM (inactive)	3070 nM (inactive)	2810 nM (inactive)	3920 nM (inactive)
Cn1cnc([N+](=O)[O-])c1Sc1nnc(-c2ccc(Cl)cc2)n1C	20300 nM (inactive)	7670 nM (inactive)	16700 nM (inactive)	16200 nM (inactive)	> 10000 nM (inactive)	–	12100 nM (inactive)	15500 nM (inactive)	17700 nM (inactive)	14700 nM (inactive)	14100 nM (inactive)	13600 nM (inactive)	5790 nM (inactive)	10600 nM (inactive)	27800 nM (inactive)	–	> 100000 nM (inactive)	15800 nM (inactive)	51200 nM (inactive)	16300 nM (inactive)
C[C@@H]1O[C@@H](O[C@H]2CC[C@]3(C=O)[C@H]4CC[C@]5(C)[C@@H](c6ccc(=O)oc6)CC[C@]5(O)[C@@H]4CC[C@]3(O)C2)[C@H](O)[C@H](O)[C@H]1O[C@@H]1O[C@H](CO)[C@@H](O)[C@H](O)[C@H]1O [HELLEBRIN]	37.5 nM (active)	16.6 nM (active)	18.3 nM (active)	8.11 nM (active)	4.51 nM (active)	6.53 nM (active)	40.2 nM (active)	27 nM (active)	3.47 nM (active)	5.06 nM (active)	37.5 nM (active)	21 nM (active)	7.5 nM (active)	–	28.4 nM (active)	2.65 nM (active)	37.5 nM (active)	2.08 nM (active)	22.6 nM (active)	22.3 nM (active)
